Key:
Experiment in all cases: Job plot, absorption and fluorescence
Settings in all cases: 150 mM KCl; 10 mM Tris-HCl pH 7.4, 1 mM Na2EDTA, 400 ml/l PEG 200; 5 μM total
[1] = tested on: Hum57-M3 (DNA, G4) GGGTTAGGGTTAGGGTTAGGGTTGAGTGTGAGTGTAGGGTTAGGGTTAGGGTTAGGG
[2] = tested on: Hum45 (DNA, G4) GGGTTAGGGTTAGGGTTAGGGTTAGGGTTAGGGTTAGGGTTAGGG
[3] = tested on: Hum51 (DNA, G4) GGGTTAGGGTTAGGGTTAGGGTTAGGGTTAGGGTTAGGGTTAGGGTTAGGG
[4] = tested on: Hum57-M1 (DNA, G4) GGGTTAGGGTTAGGGTTAGGGTTAGGGTTAGGGTTAGGGTTAGGGTGTGAGTGTGAG
[5] = tested on: Hum63 (DNA, G4) GGGTTAGGGTTAGGGTTAGGGTTAGGGTTAGGGTTAGGGTTAGGGTTAGGGTTAGGGTTAGGG
[6] = tested on: Hum21 (DNA, G4) GGGTTAGGGTTAGGGTTAGGG
[7] = tested on: Hum57 (DNA, G4) GGGTTAGGGTTAGGGTTAGGGTTAGGGTTAGGGTTAGGGTTAGGGTTAGGGTTAGGG
[8] = tested on: Hum51-M1 (DNA, G4) GGGTTAGGGTTAGGGTTAGGGTTAGGGTTAGGGTTAGGGTTAGGGTGTGAG
[9] = tested on: Hum69 (DNA, G4) GGGTTAGGGTTAGGGTTAGGGTTAGGGTTAGGGTTAGGGTTAGGGTTAGGGTTAGGGTTAGGGTTAGGG
[10] = tested on: Hum57-M2 (DNA, G4) GGGTTAGGGTTAGGGTTAGGGTTGAGTGTAGGGTTAGGGTTAGGGTTAGGGTGTGAG
[11] = tested on: Hum51-M2 (DNA, G4) GGGTTAGGGTTAGGGTTAGGGTTGAGTGTAGGGTTAGGGTTAGGGTTAGGG

Measured: binding

C[N+]1(CCOc2ccc(-c3c4nc(c(-c5ccc(OCC[N+]6(C)CCCCC6)cc5)c5ccc([nH]5)c(-c5ccc(OCC[N+]6(C)CCCCC6)cc5)c5nc(c(-c6ccc(OCC[N+]7(C)CCCCC7)cc6)c6ccc3[nH]6)C=C5)C=C4)cc2)CCCCC1
yes: all assays above
